According to PMC11672292, “Discovery of Balasubramide Derivative with Tissue‐Specific Anti‐Inflammatory Activity Against Acute Lung Injury by Targeting VDAC1” (Advanced Science, 2024):
Where two headings read alike, the source gives them in different places.

Columns and labels:
[1] = Pharmacokinetics and tissue distribution after single intravenous administration; format: in vivo, mouse; conditions: mice; for Vd: read-out: VdSS; for Kp: read-out: Tissues/plasma ratio
Description: Pharmacokinetic studies were performed as previously described.^[ [63] ^] Briefly, ICR mice were fasted without water for 16 h before drug administration and allowed access to food and water freely after administration. After given a single intravenous administration of (+)3C‐20 (10 mg kg^−1), mice were anesthetized with isoflurane, and blood samples were collected through jugular vein at different time points (0, 0.083, 0.25, 0.5, 1, 2, 4, 6, 8, 24 h), as well as at different time points (0.5, 2, 6, 24 h) mice were euthanized and brain, heart, liver, spleen, lung, and kidney were collected. Blood samples were collected in tubes containing sodium heparin and centrifuged at 5000 rpm at 4 °C for 10 min to prepare plasma, tissues were cleaned in prechilled saline and homogenized to be tested, and all samples were stored at […]. LC‐MS/MS was performed to determine the concentrations of (+)3C‐20 in the plasma and tissues of the mice and to calculate the related pharmacokinetic parameters, which were then used to investigate the pharmacokinetic characteristics and tissue distribution of (+)3C‐20 in mice.

VDAC2 = target: T1, VDAC2 (Mus musculus, UniProt Q60930); assay: Cellular thermal shift assay (CETSA) in RAW264.7 cells; format: binding; conditions: 20 µM
T1 construct: endogenous in cells; host or cells: RAW264.7
T1 sequence (Q60930 1-295): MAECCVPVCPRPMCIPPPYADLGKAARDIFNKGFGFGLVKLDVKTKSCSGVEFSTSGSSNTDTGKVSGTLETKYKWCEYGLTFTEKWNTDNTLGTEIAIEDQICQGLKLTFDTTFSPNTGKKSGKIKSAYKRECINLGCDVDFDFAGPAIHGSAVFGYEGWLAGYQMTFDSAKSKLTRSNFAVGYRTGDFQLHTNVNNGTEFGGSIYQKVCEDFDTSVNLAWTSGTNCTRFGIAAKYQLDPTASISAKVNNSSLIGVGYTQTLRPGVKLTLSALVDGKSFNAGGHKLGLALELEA
Description: For CETSA experiments, RAW264.7 cells were incubated with DMSO or (+)3C‐20 (20 µM) in DMEM for 3 h at standard culture conditions. After washed twice with PBS, the cells were collected and divided equally into 12 groups using PBS containing protease and phosphatase inhibitor cocktail. All the samples were heated in a module with pre‐set temperature (37–81 °C) for 3 min, and balanced at 25 °C for another 3 min. Samples were freeze‐thawed with liquid nitrogen three times to completely lyse cells. The 60 µL supernatant containing soluble protein was isolated by centrifugation (13 800 × g, 20 min, 4 °C), mixed with 20 µL laemmli buffer (4 ×), and heated for 10 min at 95 °C. Eventually, the samples were separated by 10% SDS‐PAGE gels for immunoblotting analysis. For ITDRF experiments, the procedures and details were similar to CETSA experiments. In brief, the RAW264.7 cells were seeded in 6‐well plates, incubated with different concentrations of (+)3C‐20, and heated at a designed temperature.

in vivo = conditions: mouse, iv
Description: To test the safety of (+)3C‐20 in mice, as previously reported,^[ [31] ^] we estimated the acute toxicity of (+)3C‐20 in mice using a sequential method.

[2] = ICR, mouse, brain, iv, single i.v. 10 mg/kg, read-out: Concentration of (+)3C-20, Brain
[3] = ICR, mouse, heart, iv, single i.v. 10 mg/kg, read-out: Concentration of (+)3C-20, Heart
[4] = ICR, mouse, iv, single i.v. 10 mg/kg, Blood
[5] = ICR, mouse, iv, single i.v. 10 mg/kg, Brain
[6] = ICR, mouse, iv, single i.v. 10 mg/kg, Heart
[7] = ICR, mouse, iv, single i.v. 10 mg/kg, Kidney
[8] = ICR, mouse, iv, single i.v. 10 mg/kg, Liver
[9] = ICR, mouse, iv, single i.v. 10 mg/kg, Lung
[10] = ICR, mouse, iv, single i.v. 10 mg/kg, Plasma
[11] = ICR, mouse, iv, single i.v. 10 mg/kg, Spleen
[12] = ICR, mouse, kidney, iv, single i.v. 10 mg/kg, read-out: Concentration of (+)3C-20, Kidney
[13] = ICR, mouse, liver, iv, single i.v. 10 mg/kg, read-out: Concentration of (+)3C-20, Liver
[14] = ICR, mouse, lung, iv, single i.v. 10 mg/kg, read-out: Concentration of (+)3C-20, Lung
[15] = ICR, mouse, spleen, iv, single i.v. 10 mg/kg, read-out: Concentration of (+)3C-20, Spleen

## O=C(CCc1ccc(C(F)(F)F)cc1)O[C@@H]1C(=O)NCCc2c([nH]c3ccccc23)[C@H]1c1ccc(C(F)(F)F)cc1 [(+)3C-20]
[1]; [2]
  concentration at 0.5 h: 518 ± 66 ng/g
  concentration at 2 h: 317 ± 86.1 ng/g
  concentration at 6 h: 113 ± 11.8 ng/g
[1]; [3]
  concentration at 0.5 h: 4510 ± 630 ng/g
  concentration at 2 h: 1270 ± 335 ng/g
  concentration at 6 h: 123 ± 12.7 ng/g
[1]; ICR, mouse, iv, i.v. 10 mg kg^−1, serum and plasma, read-out: average half-life (converted)
  half-life: 5.3 ± 0.3 h
[1]; [4]
  AUC(0-inf): 3.6 µg·h/mL
  AUC(0-t): 3.47 µg·h/mL
  C0: 3.95 µg/mL
  Cmax: 2.34 µg/mL
  clearance: 2.78 L/h/kg
  k el: 3.36e-05 s⁻¹
  Vd: 12.3 L/kg
[1]; ICR, mouse, iv, single i.v. 10 mg/kg, Blood, read-out: t1/2 (converted)
  half-life: 5.72 h
[1]; [5]
  AUC(0-inf): 3.16 µg·h/mL
  AUC(0-t): 2.98 µg·h/mL
  C0: 0.61 µg/mL
  Cmax: 0.518 µg/mL
  k el: 3.44e-05 s⁻¹
  Kp: 0.699
[1]; ICR, mouse, iv, single i.v. 10 mg/kg, Brain, read-out: t1/2 (converted)
  half-life: 5.57 h
[1]; [6]
  AUC(0-inf): 10.2 µg·h/mL
  AUC(0-t): 9.98 µg·h/mL
  C0: 6.89 µg/mL
  Cmax: 4.51 µg/mL
  k el: 0.000178 s⁻¹
  Kp: 2.34
[1]; ICR, mouse, iv, single i.v. 10 mg/kg, Heart, read-out: t1/2 (converted)
  half-life: 1.08 h
[1]; [7]
  AUC(0-inf): 3.98 µg·h/mL
  AUC(0-t): 3.78 µg·h/mL
  C0: 1.96 µg/mL
  Cmax: 1.45 µg/mL
  k el: 0.000134 s⁻¹
  Kp: 0.885
[1]; ICR, mouse, iv, single i.v. 10 mg/kg, Kidney, read-out: t1/2 (converted)
  half-life: 1.44 h
[1]; [8]
  AUC(0-inf): 15.5 µg·h/mL
  AUC(0-t): 14.9 µg·h/mL
  C0: 6.05 µg/mL
  Cmax: 5.01 µg/mL
  k el: 0.000145 s⁻¹
  Kp: 3.5
[1]; ICR, mouse, iv, single i.v. 10 mg/kg, Liver, read-out: t1/2 (converted)
  half-life: 1.33 h
[1]; [9]
  AUC(0-inf): 22.2 µg·h/mL
  AUC(0-t): 22.1 µg·h/mL
  C0: 11.7 µg/mL
  Cmax: 7.78 µg/mL
  k el: 5.39e-05 s⁻¹
  Kp: 5.17
[1]; ICR, mouse, iv, single i.v. 10 mg/kg, Lung, read-out: t1/2 (converted)
  half-life: 3.58 h
[1]; [10]
  AUC(0-inf): 4.77 µg·h/mL
  AUC(0-t): 4.7 µg·h/mL
  C0: 6.28 µg/mL
  Cmax: 4.01 µg/mL
  clearance: 2.11 L/h/kg
  k el: 3.97e-05 s⁻¹
  Vd: 6.1 L/kg
[1]; ICR, mouse, iv, single i.v. 10 mg/kg, Plasma, read-out: t1/2 (converted)
  half-life: 4.88 h
[1]; [11]
  AUC(0-inf): 9.84 µg·h/mL
  AUC(0-t): 9.56 µg·h/mL
  C0: 6.8 µg/mL
  Cmax: 4.37 µg/mL
  k el: 0.000161 s⁻¹
  Kp: 2.24
[1]; ICR, mouse, iv, single i.v. 10 mg/kg, Spleen, read-out: t1/2 (converted)
  half-life: 1.2 h
[1]; [12]
  concentration at 0.5 h: 5010 ± 516 ng/g
  concentration at 2 h: 2840 ± 692 ng/g
  concentration at 6 h: 299 ± 25.1 ng/g
[1]; [13]
  concentration at 0.5 h: 4370 ± 1010 ng/g
  concentration at 2 h: 1160 ± 434 ng/g
  concentration at 6 h: 159 ± 51.7 ng/g
[1]; [14]
  concentration at 0.5 h: 7780 ± 525 ng/g
  concentration at 2 h: 2300 ± 281 ng/g
  concentration at 6 h: 440 ± 50.4 ng/g
[1]; ICR, mouse, lung, iv, single i.v. 10 mg/kg, 24 h, read-out: Concentration of (+)3C-20, Lung
  concentration at 24 h: 23.8 ± 9.4 ng/g
[1]; [15]
  concentration at 0.5 h: 1450 ± 79.6 ng/g
  concentration at 2 h: 595 ± 192 ng/g
  concentration at 6 h: 98.7 ± 60 ng/g
[1]; i.v. 10 mg kg^−1
  lung tissue/plasma ratio in various organs: highest
[1]; single i.v. 10 mg/kg, Blood
  AUMC0-inf: 15950.5 h·h·ng·mL^-1
  AUMC0-t: 11638.5 h·h·ng·mL^-1
  MRTIV: 4.425 h
  Tissues/plasma ratio: 0.734
[1]; single i.v. 10 mg/kg, Brain
  AUMC0-inf: 19922 h·h·ng·mL^-1
  AUMC0-t: 14234 h·h·ng·mL^-1
  MRTIV: 6.3 h
[1]; single i.v. 10 mg/kg, Heart
  AUMC0-inf: 12176 h·h·ng·mL^-1
  AUMC0-t: 10724 h·h·ng·mL^-1
  MRTIV: 1.2 h
[1]; single i.v. 10 mg/kg, Kidney
  AUMC0-inf: 6846 h·h·ng·mL^-1
  AUMC0-t: 5185 h·h·ng·mL^-1
  MRTIV: 1.72 h
[1]; single i.v. 10 mg/kg, Liver
  AUMC0-inf: 26259 h·h·ng·mL^-1
  AUMC0-t: 21734 h·h·ng·mL^-1
  MRTIV: 1.69 h
[1]; single i.v. 10 mg/kg, Lung
  AUMC0-inf: 54321 h·h·ng·mL^-1
  AUMC0-t: 50741 h·h·ng·mL^-1
  MRTIV: 2.45 h
[1]; single i.v. 10 mg/kg, Plasma
  AUMC0-inf: 13980 h·h·ng·mL^-1
  AUMC0-t: 11982 h·h·ng·mL^-1
  MRTIV: 2.91 h
[1]; single i.v. 10 mg/kg, Spleen
  AUMC0-inf: 12590 h·h·ng·mL^-1
  AUMC0-t: 10456 h·h·ng·mL^-1
  MRTIV: 1.28 h
VDAC2
  thermal stability of VDAC2 (CETSA): did not improve the thermal stability
In vivo
  LD50: 185 mg/kg
